For this test, the target named is T1, human M4 muscarinic acetylcholine receptor (Homo sapiens, UniProt P08173).
T1 construct: expressed in transfected cells; host or cells: CHO-K1
T1 sequence (P08173 1-479): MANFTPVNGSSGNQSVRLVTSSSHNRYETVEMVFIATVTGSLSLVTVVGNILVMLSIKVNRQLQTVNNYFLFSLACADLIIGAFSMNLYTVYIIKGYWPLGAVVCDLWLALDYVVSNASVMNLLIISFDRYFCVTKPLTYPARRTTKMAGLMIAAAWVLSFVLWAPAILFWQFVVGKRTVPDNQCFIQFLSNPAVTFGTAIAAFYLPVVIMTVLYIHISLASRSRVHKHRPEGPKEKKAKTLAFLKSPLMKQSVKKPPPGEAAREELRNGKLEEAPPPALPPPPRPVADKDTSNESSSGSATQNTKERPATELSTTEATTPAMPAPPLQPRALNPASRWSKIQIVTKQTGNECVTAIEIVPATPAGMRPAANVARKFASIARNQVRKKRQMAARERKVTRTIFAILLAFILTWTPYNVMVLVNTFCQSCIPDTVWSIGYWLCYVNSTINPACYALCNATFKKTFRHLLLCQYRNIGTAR
Briefly: human FLIPR-based M4 PAM assay (Ca2+ mobilization, CHO-K1 cells with human M4 receptor and Gαqi5). The test is classed as cell-based. The settings on record: acetylcholine at 20% of maximum response, read-out: M4 PAM IP. The method, then: In a typical experiment the M4 muscarinic acetylcholine receptor modulating activity of the compounds of the present invention was determined in accordance with the following experimental method. CHO-K1 cells stably transfected with human M4 receptor and chimeric G-protein Gαqi5 (Coward P, et al., Analytical Biochemistry, 270:242-248 (1999)) are thawed from liquid N2 storage, resuspended in growth medium, plated in black, clear bottom 384 well plates, and incubated 16-20 hours at 37° C., 5% CO2. On the day of assay, growth medium is removed, the cells are washed 2 times with wash buffer, and cells are incubated in dye loading buffer at 37° C., 5% CO2 for ˜1 hour. […] Next, 10 uL of acetylcholine is added (final concentration calculated so as to achieve 20% of the maximum acetycholine response), and the fluorescence reading is continued for 3.5 min. In some cases, a third addition of acetylcholine (final concentration calculated to achieve 70% of the maximal acetylcholine response) is performed. The resulting dose response curves are fit to a 4 parameter logistic equation and the final result is determined as the inflection point (IP) of the curve
CHO-K1 cells stably transfected with human M4 receptor and chimeric G-protein Gαqi5 are thawed from liquid N2 storage, resuspended in growth medium, plated in black, clear bottom 384 well plates, and incubated 16-20 hours at 37° C., 5% CO2.
On the day of assay, growth medium is removed, the cells are washed 2 times with wash buffer, and cells are incubated in dye loading buffer at 37° C., 5% CO2 for ˜1 h. […] Next, 10 uL of acetylcholine is added (final concentration calculated so as to achieve 20% of the maximum acetycholine response), and the fluorescence reading is continued for 3.5 min. In some cases, a third addition of acetylcholine (final concentration calculated to achieve 70% of the maximal acetylcholine response) is performed.
On the technique in general: A change in cytosolic calcium serves as a functional read-out for many receptors and channels.
In the case of `Cc1cc2c(nc1N1CCC(Oc3ccccc3)C(F)(F)C1)CNC2=O` (single isomer, unassigned) [Example 158A, cis-2-(3,3-Difluoro-4-phenoxypiperidin-1-yl)-3-methyl-6,7-dihydro-5H-pyrrolo[3,4-b]pyridin-5-one], the EC50 stood at 0.452 µM.
Regarding `Cc1cc2c(nc1N1CCC(Oc3ccc4ocnc4c3)CC1)CNC2=O` [Example 80, 2-(4-(benzo[d]oxazol-5-yloxy)piperidin-1-yl)-3-methyl-6,7-dihydro-5H-pyrrolo[3,4-b]pyridin-5-one], the EC50 was determined as 0.069 µM.
Under `Cc1c(N2CCC(Oc3ccc4c(c3)COC4)CC2)nc2c(c1C)C(=O)N([C@@H](C)CO)C2` [Example 266D, (S)-2-(4-((1,3-dihydro-2-benzofuran-5-yl)oxy)piperidin-1-yl)-6-(1-hydroxypropan-2-yl)-3,4-dimethyl-6,7-dihydro-5H-pyrrolo[3,4-b]pyridin-5-one] stands 0.043 µM; under `COc1ccc(O[C@@H]2CCN(c3nc4c(cc3C)C(=O)N(C)C4)C[C@@H]2F)cn1` [Example 33, 2-((3S,4R)-3-fluoro-4-((6-methoxypyridin-3-yl)oxy)piperidin-1-yl)-3,6-dimethyl-6,7-dihydro-5H-pyrrolo[3,4-b]pyridin-5-one], 0.022 µM.
Under `COc1ccc(OC2CCN(c3nc4c(cc3Cl)C(=O)NC4)CC2)cn1` [Example 327, 3-Chloro-2-(4-((6-methoxypyridin-3-yl)ox)piperidin-1-yl)-6,7-dihydro-5H-pyrrolo[3,4-b]pyridin-5-one] stands 0.205 µM; under `Cc1cc2c(nc1N1CCC(Oc3ccc4c(c3)CCC(C)(C)O4)CC1)CNC2=O` [Example 127, 2-(4-((2,2-dimethylchroman-6-yl)oxy)piperidin-1-yl)-3-methyl-6,7-dihydro-5H-pyrrolo[3,4-b]pyridin-5-one], 0.48 µM.
Consider `CCc1cc2c(nc1N1CC[C@H](OCC3(C)CC3)[C@@H](F)C1)CN(CCO)C2=O` [Example 266E, 3-ethyl-2-((3S,4S)-3-fluoro-4-((1-methylcyclopropyl)methoxy)piperidin-1-yl)-6-(2-hydroxyethyl)-6,7-dihydro-5H-pyrrolo[3,4-b]pyridin-5-one], for which the EC50 was found to be 0.159 µM.
Under `Cc1cc2c(nc1N1CCC(Oc3cncc(CO)c3)CC1)CNC2=O` [Example 156, 2-(4-((5-(hydroxymethyl)pyridin-3-yl)oxy)piperidin-1-yl)-3-methyl-6,7-dihydro-5H-pyrrolo[3,4-b]pyridin-5-one] stands 1.22 µM; under `Cc1cc2c(nc1N1CCC(Oc3ccc4c(c3)OCCN4C)CC1)CNC2=O` [Example 293, 3-methyl-2-(4-((4-methyl-3,4-dihydro-2H-benzo[b][1,4]oxazin-7-yl)oxy)piperidin-1-yl)-6,7-dihydro-5H-pyrrolo[3,4-b]pyridin-5-one], 0.104 µM; under `CCc1cc2c(nc1N1CC[C@@H](Oc3cccnc3)[C@@H](F)C1)CNC2=O` (single isomer, unassigned) [Example 215], 0.304 µM.
In the case of `COc1ccc(O[C@H]2C[C@H]3CC[C@@H](C2)N3c2nc3c(cc2C)C(=O)NC3)cn1` [Example 97, 2-(endo-3-((6-methoxypyridin-3-yl)oxy)-8-azabicyclo[3.2.1]octan-8-yl)-3-methyl-6,7-dihydro-5H-pyrrolo[3,4-b]pyridin-5-one], the EC50 came out at 0.8 µM.
Under `COc1ccc(OC2CCN(c3nc4c(cc3C)C(=O)N(C)[C@@H]4CO)CC2)cn1` (single isomer, unassigned) [Example 273B] stands 0.023 µM; under `CCc1cc2c(nc1N1CCC(Oc3ccccc3)CC1)CNC2=O` [Example 202, 3-ethyl-2-(4-phenoxypiperidin-1-yl)-6,7-dihydro-5H-pyrrolo[3,4-b]pyridin-5-one], 0.148 µM.
Consider `CCc1cc2c(nc1N1CCC(Oc3ccc4c(c3)CCOC4)CC1)CN(CCO)C2=O` [Example 266F, 3-ethyl-6-(2-hydroxyethyl)-2-(4-(isochroman-6-yloxy)piperidin-1-yl)-6,7-dihydro-5H-pyrrolo[3,4-b]pyridin-5-one], for which the EC50 stood at 0.057 µM.
In the case of `Cc1cc2c(nc1N1CCC(OCC(C)(C)C)CC1)CNC2=O` [Example 182, 3-methyl-2-(4-(neopentyloxy)piperidin-1-yl)-6,7-dihydro-5H-pyrrolo[3,4-b]pyridin-5-one], the EC50 worked out at 3.79 µM.
Take `CCc1cc2c(nc1N1CCC(Oc3ccc4c(c3)OCC4)CC1)CN(CCO)C2=O` [Example 265A, 2-(4-((2,3-dihydrobenzofuran-6-yl)oxy)piperidin-1-yl)-3-ethyl-6-(2-hydroxyethyl)-6,7-dihydro-5H-pyrrolo[3,4-b]pyridin-5-one]: the EC50 was found to be 0.1 µM.
Turning to `Cc1cc2c(nc1N1CCC(Oc3ccccc3)CC1)CN(C1CC1)C2=O` [Example 250, 6-cyclopropyl-3-methyl-2-(4-phenoxypiperidin-1-yl)-6,7-dihydro-5H-pyrrolo[3,4-b]pyridin-5-one], the EC50 was 0.149 µM.
Under `Cc1cc2c(nc1N1CCC(Oc3cccc(C#N)c3)CC1)C(C)N(C)C2=O` (centres unmarked) [Example 13, 3-((1-(3,6,7-trimethyl-5-oxo-6,7-dihydro-5H-pyrrolo[3,4-b]pyridin-2-yl)piperidin-4-yl)oxy)benzonitrile] stands 0.174 µM.
The result for `Cc1nc2ccc(OC3CCN(c4nc5c(cc4C)C(=O)NC5)CC3)cc2s1` [Example 122, 3-methyl-2-(4-((2-methylbenzo[d]thiazol-6-yl)oxy)piperidin-1-yl)-6,7-dihydro-5H-pyrrolo[3,4-b]pyridin-5-one] reads 2.11 µM; that for `Cc1cc2c(nc1N1CCC(Oc3ccc4c(c3)CCC4)CC1)CNC2=O` [Example 44, 2-(4-((2,3-dihydro-1H-inden-5-yl)oxy)piperidin-1-yl)-3-methyl-6,7-dihydro-5H-pyrrolo[3,4-b]pyridin-5-one], 0.13 µM; that for `Cc1nc2ccc(O[C@@H]3CCN(c4nc5c(cc4C)C(=O)NC5)C[C@@H]3F)cc2o1` [Example 162, 2-((3S,4R)-3-fluoro-4-((2-methylbenzo[d]oxazol-6-yl)oxy)piperidin-1-yl)-3-methyl-6,7-dihydro-5H-pyrrolo[3,4-b]pyridin-5-one], 0.051 µM.
Under `CCc1cc2c(nc1N1CCC(Oc3ccc4c(c3)C[C@@H](O)C4)CC1)CNC2=O` [Example 166B, (S)-3-ethyl-2-(4-((2-hydroxy-2,3-dihydro-1H-inden-5-yl)oxy)piperidin-1-yl)-6,7-dihydro-5H-pyrrolo[3,4-b]pyridin-5-one] stands 0.057 µM; under `Cc1cc2c(nc1N1CCC(Oc3ccc4c(c3)CO[C@H]4C)CC1)CNC2=O` [Example 199B, (S)-3-methyl-2-(4-((1-methyl-1,3-dihydro-2-benzofuran-5-yl)oxy)piperidin-1-yl)-6,7-dihydro-5H-pyrrolo[3,4-b]pyridin-5-one], 0.072 µM.
Take `COc1ccc(OC2CCN(c3nc4c(cc3C)C(=O)N(C)[C@H]4CO)CC2)cn1` (single isomer, unassigned) [Example 273A]: the EC50 amounted to 4.5 µM.
With `Cc1cc2c(nc1N1CCC(Oc3ccc4c(c3)CC[C@@H]4CCO)CC1)CNC2=O` [Example 157A, (R)-2-(4-((1-(2-hydroxyethyl)-2,3-dihydro-1H-inden-5-yl)oxy)piperidin-1-yl)-3-methyl-6,7-dihydro-5H-pyrrolo[3,4-b]pyridin-5-one], the EC50 was determined as 0.093 µM.
Regarding `COCCOc1ccc(OC2CCN(c3nc4c(cc3C)C(=O)NC4)CC2)cn1` [Example 171, 2-(4-((6-(2-methoxyethoxy)pyridin-3-yl)oxy)piperidin-1-yl)-3-methyl-6,7-dihydro-5H-pyrrolo[3,4-b]pyridin-5-one], the EC50 was determined as 0.079 µM.
Under `Cc1cc2c(nc1N1CC[C@@H](Oc3ccc4c(c3)COCC4)[C@@H](F)C1)CNC2=O` [Example 178B, 2-((3S,4R)-3-fluoro-4-(isochroman-7-yloxy)piperidin-1-yl)-3-methyl-6,7-dihydro-5H-pyrrolo[3,4-b]pyridin-5-one] stands 0.018 µM.
Under `Cc1cc2c(nc1N1CCC(Oc3cccc(CO)c3)CC1)CNC2=O` [Example 309, 2-(4-(3-(Hydroxymethyl)phenoxy)piperidin-1-yl)-3-methyl-6,7-dihydro-5H-pyrrolo[3,4-b]pyridin-5-one] stands 0.047 µM; under `Cc1c(N2CCC(Oc3ccc4c(c3)COC4)CC2)nc2c(c1C)C(=O)N(C)[C@@H]2CO` (single isomer, unassigned) [Example 337A], 0.02 µM.

The values above are taken from US10329289B2, “6,7-dihydro-5H-pyrrolo[3,4-B]pyridin-5-one allosteric modulators of the M4 muscarinic acetylcholine receptor” (Merck Sharp & Dohme Corp., priority 2015, dated 2019).
